Measured values reported in PubChem BioAssay (NCI).
“And” between values parts separate entries of the source, which are not always exact repeats. Identical values can stand only once.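 A five-concentration, 48-hour dose response in 96-well plates underlies each endpoint, interpolated linearly between surrounding concentrations. GI50 is the concentration that inhibits growth by half. The concentration for full growth arrest is given as TGI.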

How the values were obtained:
Assay in all cases: growth of human tumour cells (NCI), 48 h
NCI-H522 lung = system: NCI-H522 lung
SK-MEL-2 melanoma = system: SK-MEL-2 melanoma
SN12C renal = system: SN12C renal
HS 578T breast = system: HS 578T breast
CCRF-CEM leukemia = system: CCRF-CEM leukemia
OVCAR-5 ovarian = system: OVCAR-5 ovarian
SF-295 CNS = system: SF-295 CNS
CAKI-1 renal = system: CAKI-1 renal
HOP-92 NSCLC = system: HOP-92 NSCLC
HCC-2998 colon = system: HCC-2998 colon

## CCOC(=O)/C(=C\c1ccc(C#N)cc1)C(C)=O
NCI-H522 lung
  TGI: 24.9 µM
SK-MEL-2 melanoma
  TGI: 31.3 µM
SN12C renal
  TGI: 62.8 µM
HS 578T breast
  TGI: 88.6 µM
CCRF-CEM leukemia
  TGI: > 100 µM
OVCAR-5 ovarian
  TGI: > 100 µM
SF-295 CNS
  TGI: > 100 µM
CAKI-1 renal
  TGI: > 100 µM
HOP-92 NSCLC
  TGI: 50.6 µM
HCC-2998 colon
  TGI: 19.6 µM

## N#CC1=C(N)Oc2c(sc3c(Br)cccc23)C1c1ccc(Br)cc1 (stereo not given)
NCI-H522 lung
  GI50: 0.088 µM
  TGI: 0.534 µM
SK-MEL-2 melanoma
  GI50: 0.434 µM
  TGI: 4 µM
SN12C renal
  GI50: 2.33 µM
  TGI: 13.4 µM
HS 578T breast
  GI50: 2.44 µM
  TGI: 13.5 µM
CCRF-CEM leukemia
  GI50: 0.496 µM
  TGI: 13.6 µM
OVCAR-5 ovarian
  GI50: 3.12 µM
  TGI: 14.3 µM
SF-295 CNS
  GI50: 0.38 µM
  TGI: 2.85 µM
CAKI-1 renal
  GI50: 1.97 µM
  TGI: 22.2 µM
HOP-92 NSCLC
  GI50: 1.43 µM
  TGI: 5.56 µM
HCC-2998 colon
  GI50: 1.77 µM
  TGI: 7.33 µM

## COc1ccc(/C(=N\O)c2cc(C)c(OC)c(C)c2)cc1O
NCI-H522 lung
  GI50: < 0.01 µM
  TGI: 0.0101 µM
SK-MEL-2 melanoma
  GI50: 0.0328 µM
  TGI: > 100 µM
SN12C renal
  GI50: 0.0484 µM
  TGI: > 100 µM
HS 578T breast
  GI50: 0.0198 µM
  TGI: > 100 µM
CCRF-CEM leukemia
  GI50: 0.0185 µM
  TGI: > 100 µM
OVCAR-5 ovarian
  GI50: 0.0631 µM
  TGI: > 100 µM
SF-295 CNS
  GI50: < 0.01 µM
  TGI: > 100 µM
HOP-92 NSCLC
  GI50: 0.41 µM
  TGI: > 100 µM
HCC-2998 colon
  GI50: 0.0279 µM
  TGI: > 100 µM

## NC1=C(c2nc(-c3ccccc3)cs2)C(c2ccc(Br)cc2)c2c(c3ccccc3oc2=O)O1 (stereo not given)
NCI-H522 lung
  GI50: 47.1 µg/mL
  TGI: > 150 µg/mL
SK-MEL-2 melanoma
  GI50: 89 µg/mL
  TGI: > 150 µg/mL
SN12C renal
  GI50: 85.9 µg/mL
  TGI: > 150 µg/mL
HS 578T breast
  GI50: 30.4 µg/mL
  TGI: 91.4 µg/mL
CCRF-CEM leukemia
  GI50: 66.9 µg/mL
  TGI: > 150 µg/mL
OVCAR-5 ovarian
  GI50: > 150 µg/mL
  TGI: > 150 µg/mL
SF-295 CNS
  GI50: > 150 µg/mL
  TGI: > 150 µg/mL
CAKI-1 renal
  GI50: 70 µg/mL
  TGI: > 150 µg/mL
HOP-92 NSCLC
  GI50: 38.4 µg/mL
  TGI: 102 µg/mL
HCC-2998 colon
  GI50: 130 µg/mL
  TGI: > 150 µg/mL

## COc1cccc2c1C(=O)c1c(O)c3c(c(O)c1C2=O)C[C@@](O)(C(=O)CO)C[C@@H]3O[C@H]1C[C@H](N)[C@@H](O)[C@H](C)O1
NCI-H522 lung
  GI50: 0.101 µM
  TGI: 0.89 µM
SK-MEL-2 melanoma
  GI50: 0.514 µM
  TGI: 3.09 µM
SN12C renal
  GI50: 0.126 µM
  TGI: 11.9 µM
HS 578T breast
  GI50: 0.257 µM
  TGI: 3.3 µM
CCRF-CEM leukemia
  GI50: 0.0919 µM
  TGI: 0.95 µM
OVCAR-5 ovarian
  GI50: 1.27 µM
  TGI: 13 µM
SF-295 CNS
  GI50: 0.158 µM
  TGI: 1.54 µM
CAKI-1 renal
  GI50: 1.32 µM
  TGI: 30.7 µM
HOP-92 NSCLC
  GI50: 0.0743 µM
  TGI: 0.697 µM
HCC-2998 colon
  GI50: 0.161 µM
  TGI: 1.29 µM

## Cc1cc2[nH]c(=O)c3c4ccccc4cn3c2cc1C
NCI-H522 lung
  GI50: 14.5 µM
  TGI: 31.1 µM
SK-MEL-2 melanoma
  GI50: 18.1 µM
  TGI: 34.8 µM
SN12C renal
  GI50: 6.02 µM
  TGI: 20.3 µM
HS 578T breast
  GI50: 25 µM
  TGI: 59.9 µM
CCRF-CEM leukemia
  GI50: 9.92 µM
  TGI: 31.2 µM
OVCAR-5 ovarian
  GI50: 13.8 µM
  TGI: 27.4 µM
SF-295 CNS
  GI50: 12.2 µM
  TGI: 28.5 µM
CAKI-1 renal
  GI50: 5.33 µM
  TGI: 17.8 µM
HOP-92 NSCLC
  GI50: 15.4 µM
  TGI: 30.2 µM
HCC-2998 colon
  GI50: 4.04 µM
  TGI: 16.7 µM

## Cc1cc(=O)[nH]c2cc3c(c4c(n3Cc3ccc(Cl)cc3Cl)CC(C)(C)CC4=O)c(O)c12
NCI-H522 lung
  GI50: > 100 µM
  TGI: > 100 µM
SK-MEL-2 melanoma
  GI50: > 100 µM
  TGI: > 100 µM
SN12C renal
  GI50: > 100 µM
  TGI: > 100 µM
HS 578T breast
  GI50: 49.2 µM
  TGI: > 100 µM
CCRF-CEM leukemia
  GI50: 82.3 µM
  TGI: > 100 µM
SF-295 CNS
  GI50: 16.4 µM
  TGI: 63.5 µM
CAKI-1 renal
  GI50: > 100 µM
  TGI: > 100 µM
HOP-92 NSCLC
  GI50: 54.2 µM
  TGI: > 100 µM
HCC-2998 colon
  GI50: > 100 µM
  TGI: > 100 µM

## Clc1ccc2nnnn2n1
NCI-H522 lung
  GI50: 3.01 µM
  TGI: 11.2 µM
SK-MEL-2 melanoma
  GI50: 2.88 µM
  TGI: 20.7 µM
SN12C renal
  GI50: 4.7 µM
  TGI: > 100 µM
HS 578T breast
  GI50: 21.8 µM
  TGI: > 100 µM
CCRF-CEM leukemia
  GI50: 3.74 µM
  TGI: 29.8 µM
OVCAR-5 ovarian
  GI50: 4.7 µM
  TGI: 20.5 µM
SF-295 CNS
  GI50: 4.05 µM
  TGI: > 100 µM
CAKI-1 renal
  GI50: 10.1 µM
  TGI: 22.8 µM
HOP-92 NSCLC
  GI50: 4.15 µM
  TGI: 27 µM
HCC-2998 colon
  GI50: 16.9 µM
  TGI: 40.6 µM

## CCN1C(=O)N(c2ccccc2)C2NC(=S)N(/N=C/C=C/c3ccccc3)C21 (stereo not given)
NCI-H522 lung
  GI50: 0.133 µM
  TGI: 6.6 µM
SK-MEL-2 melanoma
  GI50: 0.345 µM
  TGI: > 94.2 µM
SN12C renal
  GI50: 0.742 µM
  TGI: > 100 µM
HS 578T breast
  GI50: 0.339 µM
  TGI: > 100 µM
CCRF-CEM leukemia
  GI50: 0.35 µM
  TGI: > 100 µM
OVCAR-5 ovarian
  GI50: 0.631 µM
  TGI: > 100 µM
SF-295 CNS
  GI50: 0.276 µM
  TGI: > 100 µM
CAKI-1 renal
  GI50: 0.269 µM
  TGI: > 100 µM
HOP-92 NSCLC
  GI50: 4.66 µM
  TGI: > 100 µM
HCC-2998 colon
  GI50: 0.399 µM
  TGI: > 100 µM

## Oc1[nH]c2c(Br)cccc2c1C1=Nc2ccccc2/C1=N/OCCN1CCCC1
NCI-H522 lung
  GI50: 0.847 µM
  TGI: 3.4 µM
SK-MEL-2 melanoma
  GI50: 2.21 µM
SN12C renal
  GI50: 0.74 µM
  TGI: 4.99 µM and 8.59 µM
HS 578T breast
  GI50: 1.2 µM
  TGI: 3 µM
CCRF-CEM leukemia
  GI50: 0.741 µM and 1.12 µM
OVCAR-5 ovarian
  GI50: 1.21 µM and 1.91 µM
  TGI: 4.82 µM and 14.7 µM
SF-295 CNS
  GI50: 0.638 µM
  TGI: 3.69 µM
CAKI-1 renal
  GI50: 0.332 µM
  TGI: 2.24 µM
HOP-92 NSCLC
  GI50: 1.04 µM
  TGI: 3.12 µM
HCC-2998 colon
  GI50: 1 µM
  TGI: 6.18 µM

## CCC[CH2][Sn]([CH2]CCC)([CH2]CCC)[O]C(=O)c1ccc(Cl)cc1Cl
NCI-H522 lung
  GI50: 0.0784 µM
  TGI: 0.251 µM
SK-MEL-2 melanoma
  GI50: 0.149 µM
  TGI: 0.333 µM
SN12C renal
  GI50: 0.145 µM
  TGI: 0.35 µM
HS 578T breast
  GI50: 0.173 µM
  TGI: 0.538 µM
OVCAR-5 ovarian
  GI50: 0.135 µM
  TGI: 0.315 µM
SF-295 CNS
  GI50: 0.197 µM
  TGI: 0.375 µM
CAKI-1 renal
  GI50: 0.0785 µM
  TGI: 0.255 µM
HOP-92 NSCLC
  GI50: 0.102 µM
  TGI: 0.301 µM
HCC-2998 colon
  GI50: 0.168 µM
  TGI: 0.31 µM

## C=C1C(=O)O[C@H]2[C@H]1CCC(/C=N/c1ncc(Br)cc1N)=C\CC[C@@]1(C)O[C@@H]21
NCI-H522 lung
  GI50: 0.781 µM
  TGI: 2.6 µM
SK-MEL-2 melanoma
  GI50: 1.96 µM
  TGI: 4.87 µM
SN12C renal
  GI50: 1.78 µM
  TGI: 5.41 µM
HS 578T breast
  GI50: 5.65 µM
  TGI: 40.1 µM
CCRF-CEM leukemia
  GI50: 0.429 µM
  TGI: 10.8 µM
OVCAR-5 ovarian
  GI50: 3.2 µM
  TGI: 11.5 µM
SF-295 CNS
  GI50: 10.4 µM
  TGI: 24.3 µM
HOP-92 NSCLC
  GI50: 1.31 µM
  TGI: 3.74 µM
HCC-2998 colon
  GI50: 3.56 µM
  TGI: 12.9 µM
